Columns and labels:
Human opioid (ORL1) = target: T1, Human opioid (ORL1) (Homo sapiens, UniProt P41146); assay: Radioligand binding, human opioid ORL1 membranes, FlashPlate, [125I]-Nociceptin; conditions: compound at 10 μM, [125I]-Nociceptin; for A10: inhibition of radioligand binding: human ORL1 membranes
T1 construct: purchased Perkin Elmer Biosignal
Summary of the method: (§1)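 Cloned human receptor membranes were coated onto FlashPlate wells and incubated with radioligand and compound (added from a 0.5 mM DMSO daughter plate) for 1 hour at room temperature in the dark. Scintillation counting gave percent inhibition, with DMSO defining total and reference ligand defining non-specific binding.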

Human Melanocortin (MC3) = target: T2, Human Melanocortin (MC3) (Homo sapiens, UniProt P41968); assay: Radioligand binding, human melanocortin MC3 membranes, FlashPlate, [125I]-NDP-αMSH; conditions: compound at 10 μM, [125I]-NDP-αMSH; for A3: inhibition of radioligand binding: human MC3 membranes
T2 construct: purchased Perkin Elmer Biosignal
T2 sequence (P41968 whole entry): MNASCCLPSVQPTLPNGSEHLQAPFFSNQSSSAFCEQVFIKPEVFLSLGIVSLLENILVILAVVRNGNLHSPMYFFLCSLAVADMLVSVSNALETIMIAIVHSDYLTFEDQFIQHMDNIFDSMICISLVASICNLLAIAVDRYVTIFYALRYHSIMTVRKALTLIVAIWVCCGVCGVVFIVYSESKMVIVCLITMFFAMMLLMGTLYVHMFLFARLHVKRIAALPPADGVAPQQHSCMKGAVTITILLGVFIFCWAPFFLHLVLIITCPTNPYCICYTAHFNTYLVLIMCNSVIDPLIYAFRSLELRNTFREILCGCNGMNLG
Summary of the method: as §1

Human Melanocortin (MC4) = target: T3, Human Melanocortin (MC4) (Homo sapiens, UniProt P32245); assay: Radioligand binding, human melanocortin MC4 membranes, FlashPlate, [125I]-NDP-αMSH; conditions: compound at 10 μM, [125I]-NDP-αMSH; for A4: inhibition of radioligand binding: human MC4 membranes
T3 construct: purchased Perkin Elmer Biosignal
T3 sequence (P32245 whole entry): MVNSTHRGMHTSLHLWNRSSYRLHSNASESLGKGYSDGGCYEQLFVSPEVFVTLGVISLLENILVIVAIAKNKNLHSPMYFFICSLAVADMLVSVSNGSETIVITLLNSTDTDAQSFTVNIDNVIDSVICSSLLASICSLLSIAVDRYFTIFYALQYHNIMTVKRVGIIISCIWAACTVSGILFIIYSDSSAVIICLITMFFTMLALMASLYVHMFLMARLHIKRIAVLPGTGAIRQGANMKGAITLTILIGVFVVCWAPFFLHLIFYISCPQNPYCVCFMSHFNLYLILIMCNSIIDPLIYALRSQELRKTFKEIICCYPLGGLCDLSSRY
Summary of the method: as §1

Human melanocortin (MC5) = target: T4, Human melanocortin (MC5) (Homo sapiens, UniProt P33032); assay: Radioligand binding, human melanocortin MC5 membranes, FlashPlate, [125I]-NDP-αMSH; conditions: compound at 10 μM, [125I]-NDP-αMSH; for A5: inhibition of radioligand binding: human MC5 membranes
T4 construct: purchased Perkin Elmer Biosignal
T4 sequence (P33032 whole entry): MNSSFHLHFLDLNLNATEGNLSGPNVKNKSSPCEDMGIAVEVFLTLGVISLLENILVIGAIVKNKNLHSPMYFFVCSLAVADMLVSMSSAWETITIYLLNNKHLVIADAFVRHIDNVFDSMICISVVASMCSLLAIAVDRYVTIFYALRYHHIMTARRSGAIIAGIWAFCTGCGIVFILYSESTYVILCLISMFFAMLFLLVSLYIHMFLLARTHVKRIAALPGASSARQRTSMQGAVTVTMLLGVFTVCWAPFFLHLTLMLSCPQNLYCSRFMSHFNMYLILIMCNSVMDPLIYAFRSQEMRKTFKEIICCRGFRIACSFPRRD
Summary of the method: as §1

Mouse urotensin (mUR2) = target: T5, Mouse urotensin (mUR2) (Mus musculus, UniProt Q8VIH9); assay: Radioligand binding, mouse urotensin mUR2 membranes, FlashPlate, [125I]-Urotensin II; conditions: compound at 10 μM, [125I]-Urotensin II; for A11: inhibition of radioligand binding: mouse mUR2 membranes
T5 construct: purchased Perkin Elmer Biosignal
T5 sequence (Q8VIH9 1-385): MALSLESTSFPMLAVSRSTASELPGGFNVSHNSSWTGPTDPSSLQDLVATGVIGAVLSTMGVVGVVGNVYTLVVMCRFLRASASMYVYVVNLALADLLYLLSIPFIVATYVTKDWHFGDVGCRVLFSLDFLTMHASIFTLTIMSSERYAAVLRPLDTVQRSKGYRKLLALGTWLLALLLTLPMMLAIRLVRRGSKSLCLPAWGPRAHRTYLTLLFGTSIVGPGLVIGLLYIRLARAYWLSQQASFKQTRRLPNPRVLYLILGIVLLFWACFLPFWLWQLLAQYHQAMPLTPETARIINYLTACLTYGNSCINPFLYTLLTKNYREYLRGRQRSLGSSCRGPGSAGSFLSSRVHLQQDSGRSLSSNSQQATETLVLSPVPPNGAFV
Summary of the method: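 Cloned mouse urotensin (mUR2) receptor membranes from Perkin Elmer Biosignal were immobilized in FlashPlate microplates using a proprietary coating. Each well got 19.5 μl buffer, then 0.5 μl of DMSO, reference ligand, or compound. Adding 5 μl of [125I]-Urotensin II, diluted to 5× final concentration in binding buffer, started binding. Plates were sealed with TopSeal-A and incubated 1 hour at room temperature in the dark. Wells were counted for 30 seconds each on a TopCount after a 60-second delay, and percentage inhibition was calculated.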

Human δ-opioid (DOP) = target: T6, Human δ-opioid (DOP) (Homo sapiens, UniProt P41143); assay: Radioligand binding, human δ-opioid (DOP) membranes, FlashPlate, [3H]-Bremazocine; conditions: compound at 10 μM, [3H]-Bremazocine; for A1: inhibition of radioligand binding: human DOP membranes
T6 construct: purchased Perkin Elmer Biosignal
T6 sequence (P41143 whole entry): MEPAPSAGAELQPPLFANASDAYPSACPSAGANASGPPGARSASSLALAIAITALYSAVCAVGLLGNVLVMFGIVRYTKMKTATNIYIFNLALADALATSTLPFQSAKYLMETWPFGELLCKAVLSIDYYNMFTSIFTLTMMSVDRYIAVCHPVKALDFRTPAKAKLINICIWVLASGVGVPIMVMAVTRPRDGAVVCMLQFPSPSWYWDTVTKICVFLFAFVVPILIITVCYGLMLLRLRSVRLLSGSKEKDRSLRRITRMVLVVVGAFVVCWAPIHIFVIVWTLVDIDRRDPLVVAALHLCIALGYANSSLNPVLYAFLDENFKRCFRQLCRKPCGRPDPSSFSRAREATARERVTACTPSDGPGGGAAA
Summary of the method: as §1

Human neurokinin (NK1) = target: T7, Human neurokinin (NK1) (Homo sapiens, UniProt P25103); assay: Radioligand binding, human neurokinin NK1 membranes, filtration, [125I]-Substance P; conditions: compound at 10 μM, [125I]-Substance P; for A8: inhibition of radioligand binding: human NK1 membranes
T7 construct: purchased Perkin Elmer Biosignal
T7 sequence (P25103 whole entry): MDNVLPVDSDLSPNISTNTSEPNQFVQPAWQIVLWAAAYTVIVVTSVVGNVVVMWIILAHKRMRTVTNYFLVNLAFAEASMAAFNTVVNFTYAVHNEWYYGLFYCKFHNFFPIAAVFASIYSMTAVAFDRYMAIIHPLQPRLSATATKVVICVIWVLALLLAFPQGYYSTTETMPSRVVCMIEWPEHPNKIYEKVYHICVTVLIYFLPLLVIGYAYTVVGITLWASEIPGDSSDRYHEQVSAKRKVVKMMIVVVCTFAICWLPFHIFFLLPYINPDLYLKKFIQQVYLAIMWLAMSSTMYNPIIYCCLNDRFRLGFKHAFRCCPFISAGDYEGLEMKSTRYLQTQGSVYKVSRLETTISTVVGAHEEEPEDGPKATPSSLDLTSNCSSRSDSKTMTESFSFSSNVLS
Summary of the method: (§2)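 Membranes from cloned human receptors were incubated with compound and radioligand for 1 hour at room temperature. Bound ligand was collected on 0.3% PEI-soaked filters, washed with cold 50 mM Tris-HCl pH 7.4, and counted by scintillation. Percent inhibition was computed against DMSO totals and reference-ligand nonspecific wells.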

Human κ-Opioid (KOP) = target: T8, Human κ-Opioid (KOP) (Homo sapiens, UniProt P41145); assay: Radioligand binding, human κ-opioid (KOP) membranes, filtration, [3H]-Diprenorphine; conditions: compound at 10 μM, [3H]-Diprenorphine; for A2: inhibition of radioligand binding: human KOP membranes
T8 construct: purchased Perkin Elmer Biosignal
T8 sequence (P41145 whole entry): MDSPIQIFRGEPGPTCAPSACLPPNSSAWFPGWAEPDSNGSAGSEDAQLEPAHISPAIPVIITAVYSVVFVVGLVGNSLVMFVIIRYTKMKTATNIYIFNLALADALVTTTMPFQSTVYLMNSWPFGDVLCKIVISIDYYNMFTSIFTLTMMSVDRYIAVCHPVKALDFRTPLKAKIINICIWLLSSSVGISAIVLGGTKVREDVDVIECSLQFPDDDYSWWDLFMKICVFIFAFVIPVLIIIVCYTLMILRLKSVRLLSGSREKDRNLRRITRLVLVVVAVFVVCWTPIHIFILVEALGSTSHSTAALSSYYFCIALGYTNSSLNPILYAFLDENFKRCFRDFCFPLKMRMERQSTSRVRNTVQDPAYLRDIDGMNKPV
Summary of the method: as §2

[1] = target: T9, Human neuropeptide Y (NPY-Y1) (Homo sapiens, UniProt P25929); assay: Radioligand binding, human neuropeptide Y NPY-Y1 membranes, FlashPlate, [125I]-PYY; conditions: compound at 10 μM, [125I]-PYY; for A9: inhibition of radioligand binding: human NPY-Y1 membranes
T9 construct: purchased Perkin Elmer Biosignal
T9 sequence (P25929 1-384): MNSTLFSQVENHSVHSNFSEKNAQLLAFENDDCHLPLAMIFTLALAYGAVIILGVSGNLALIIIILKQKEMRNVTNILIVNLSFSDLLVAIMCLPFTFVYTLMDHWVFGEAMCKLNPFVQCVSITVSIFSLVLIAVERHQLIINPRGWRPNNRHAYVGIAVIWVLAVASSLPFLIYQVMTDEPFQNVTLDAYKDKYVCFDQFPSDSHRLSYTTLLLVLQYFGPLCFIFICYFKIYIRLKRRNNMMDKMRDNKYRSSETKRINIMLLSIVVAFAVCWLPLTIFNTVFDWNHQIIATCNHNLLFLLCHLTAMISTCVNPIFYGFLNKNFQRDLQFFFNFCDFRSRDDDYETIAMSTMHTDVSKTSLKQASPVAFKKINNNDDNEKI
Summary of the method: as §1

[2] = target: T10, Human melanin-concentrating hormone (MCH1) (Homo sapiens, UniProt Q99705); assay: Radioligand binding, human melanin-concentrating hormone MCH1 membranes, FlashPlate, [125I]-S36057; conditions: compound at 10 μM; for A6: inhibition of radioligand binding, human melanin-concentrating hormone (MCH1): [125I]-S36057; for A6: inhibition of radioligand binding: [125I]-S36057, human MCH1 membranes
T10 construct: purchased Perkin Elmer Biosignal
T10 sequence (Q99705 whole entry): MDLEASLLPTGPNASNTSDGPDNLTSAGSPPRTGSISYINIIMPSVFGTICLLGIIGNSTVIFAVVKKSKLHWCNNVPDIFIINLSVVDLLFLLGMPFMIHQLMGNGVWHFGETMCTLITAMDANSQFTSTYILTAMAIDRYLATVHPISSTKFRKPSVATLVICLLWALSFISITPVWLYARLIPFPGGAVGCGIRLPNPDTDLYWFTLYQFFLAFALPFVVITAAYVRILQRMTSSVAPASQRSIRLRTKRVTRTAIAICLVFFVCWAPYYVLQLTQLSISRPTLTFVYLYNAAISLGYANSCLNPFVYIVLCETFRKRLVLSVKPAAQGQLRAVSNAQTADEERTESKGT
Summary of the method: as §1

Human μ-opioid (MOP) = target: T11, Human μ-opioid (MOP) (Homo sapiens, UniProt P35372); assay: Radioligand binding, human μ-opioid (MOP) membranes, FlashPlate, [3H]-Naloxone; conditions: compound at 10 μM, [3H]-Naloxone; for A7: inhibition of radioligand binding: human MOP membranes
T11 construct: purchased Perkin Elmer Biosignal
T11 sequence (P35372 whole entry): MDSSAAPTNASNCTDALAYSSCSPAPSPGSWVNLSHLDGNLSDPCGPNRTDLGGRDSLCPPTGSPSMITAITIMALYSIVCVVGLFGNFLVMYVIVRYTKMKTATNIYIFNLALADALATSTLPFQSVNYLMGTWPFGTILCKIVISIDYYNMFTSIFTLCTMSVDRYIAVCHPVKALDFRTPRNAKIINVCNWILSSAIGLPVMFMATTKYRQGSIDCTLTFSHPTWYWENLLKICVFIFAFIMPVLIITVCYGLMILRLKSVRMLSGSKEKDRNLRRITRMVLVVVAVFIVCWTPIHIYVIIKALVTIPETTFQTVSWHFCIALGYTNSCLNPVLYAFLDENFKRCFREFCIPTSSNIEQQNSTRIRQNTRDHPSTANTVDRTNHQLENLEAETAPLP
Summary of the method: as §1

T1 sequence (P41146 whole entry): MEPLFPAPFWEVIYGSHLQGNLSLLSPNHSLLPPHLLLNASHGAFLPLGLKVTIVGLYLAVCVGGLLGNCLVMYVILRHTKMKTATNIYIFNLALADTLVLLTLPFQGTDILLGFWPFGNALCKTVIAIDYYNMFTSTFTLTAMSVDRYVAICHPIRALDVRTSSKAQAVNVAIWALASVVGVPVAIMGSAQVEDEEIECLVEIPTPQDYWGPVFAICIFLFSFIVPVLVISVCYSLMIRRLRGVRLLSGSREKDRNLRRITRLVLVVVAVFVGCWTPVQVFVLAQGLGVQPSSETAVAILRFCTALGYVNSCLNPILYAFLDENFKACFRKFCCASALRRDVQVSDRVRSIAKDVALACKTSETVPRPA

NCCCC(=O)NC1C(OCc2ccc(Cl)cc2)OC(COCc2ccccc2)C(O)C1OCc1ccc2ccccc2c1 (single isomer, unassigned) [compound 497]
A10: inhibition of radioligand binding, human opioid (ORL1) (Human opioid (ORL1); 10 µM): − (“−” indicates less than 50% inhibition at 10 μM)
A3: inhibition of radioligand binding, human melanocortin (MC3) (Human Melanocortin (MC3)): − (“−” indicates less than 50% inhibition at 10 μM)
A4: inhibition of radioligand binding, human melanocortin (MC4) (Human Melanocortin (MC4); 10 µM): − (“−” indicates less than 50% inhibition at 10 μM)
A5: inhibition of radioligand binding, human melanocortin (MC5) (Human melanocortin (MC5)): + (“+” indicates greater than 50% inhibition at 10 μM)
A11: inhibition of radioligand binding, mouse urotensin (mUR2) (Mouse urotensin (mUR2)): − (“−” indicates less than 50% inhibition at 10 μM)
A1: inhibition of radioligand binding, human δ-opioid (DOP) (Human δ-opioid (DOP)): − (“−” indicates less than 50% inhibition at 10 μM)
A8: inhibition of radioligand binding, human neurokinin (NK1) (Human neurokinin (NK1)): + (“+” indicates greater than 50% inhibition at 10 μM)
A2: inhibition of radioligand binding, human κ-opioid (KOP) (Human κ-Opioid (KOP)): − (“−” indicates less than 50% inhibition at 10 μM)
A9: inhibition of radioligand binding, human neuropeptide Y (NPY-Y1) [1]: − (“−” indicates less than 50% inhibition at 10 μM)
A6: inhibition of radioligand binding, human melanin-concentrating hormone (MCH1) [2]: − (“−” indicates less than 50% inhibition at 10 μM)
A7: inhibition of radioligand binding, human μ-opioid (MOP) (Human μ-opioid (MOP)): − (“−” indicates less than 50% inhibition at 10 μM)

N=C(N)NCC(=O)NC1C(OCc2ccc(Cl)cc2)OC(COCc2ccc(Cl)cc2)C(O)C1OCc1ccc(Cl)cc1 (stereo not shown) [compound 419]
A10: inhibition of radioligand binding (Human opioid (ORL1)): + (“+” indicates greater than 50% inhibition at 10 μM)
A3: inhibition of radioligand binding (Human Melanocortin (MC3)): + (“+” indicates greater than 50% inhibition at 10 μM)
A4: inhibition of radioligand binding (Human Melanocortin (MC4)): + (“+” indicates greater than 50% inhibition at 10 μM)
A5: inhibition of radioligand binding (Human melanocortin (MC5)): + (“+” indicates greater than 50% inhibition at 10 μM)
A11: inhibition of radioligand binding (Mouse urotensin (mUR2)): − (“−” indicates less than 50% inhibition at 10 μM)
A1: inhibition of radioligand binding (Human δ-opioid (DOP)): − (“−” indicates less than 50% inhibition at 10 μM)
A8: inhibition of radioligand binding (Human neurokinin (NK1)): + (“+” indicates greater than 50% inhibition at 10 μM)
A2: inhibition of radioligand binding (Human κ-Opioid (KOP)): − (“−” indicates less than 50% inhibition at 10 μM)
A9: inhibition of radioligand binding [1]: − (“−” indicates less than 50% inhibition at 10 μM)
A6: inhibition of radioligand binding [2]: + (“+” indicates greater than 50% inhibition at 10 μM)
A7: inhibition of radioligand binding (Human μ-opioid (MOP)): − (“−” indicates less than 50% inhibition at 10 μM)

NCCCC(=O)NC1C(OCc2ccc(Cl)cc2)OC(COCc2ccc(Cl)cc2)C(O)C1OCc1ccc(Cl)cc1 (single isomer, unassigned) [compound 494]
A10: inhibition of radioligand binding, human opioid (ORL1) (Human opioid (ORL1)): + (“+” indicates greater than 50% inhibition at 10 μM)
A3: inhibition of radioligand binding, human melanocortin (MC3) (Human Melanocortin (MC3); 10 µM): + (“+” indicates greater than 50% inhibition at 10 μM)
A4: inhibition of radioligand binding, human melanocortin (MC4) (Human Melanocortin (MC4)): + (“+” indicates greater than 50% inhibition at 10 μM)
A5: inhibition of radioligand binding, human melanocortin (MC5) (Human melanocortin (MC5)): + (“+” indicates greater than 50% inhibition at 10 μM)
A11: inhibition of radioligand binding, mouse urotensin (mUR2) (Mouse urotensin (mUR2)): − (“−” indicates less than 50% inhibition at 10 μM)
A1: inhibition of radioligand binding, human δ-opioid (DOP) (Human δ-opioid (DOP)): − (“−” indicates less than 50% inhibition at 10 μM)
A8: inhibition of radioligand binding, human neurokinin (NK1) (Human neurokinin (NK1)): + (“+” indicates greater than 50% inhibition at 10 μM)
A2: inhibition of radioligand binding, human κ-opioid (KOP) (Human κ-Opioid (KOP)): − (“−” indicates less than 50% inhibition at 10 μM)
A9: inhibition of radioligand binding, human neuropeptide Y (NPY-Y1) [1]: − (“−” indicates less than 50% inhibition at 10 μM)
A6: inhibition of radioligand binding, human melanin-concentrating hormone (MCH1) [2]: + (“+” indicates greater than 50% inhibition at 10 μM)
A7: inhibition of radioligand binding, human μ-opioid (MOP) (Human μ-opioid (MOP)): − (“−” indicates less than 50% inhibition at 10 μM)

COC1C(O)C(COCc2ccc3ccccc3c2)OC(OCc2ccc(Cl)cc2)C1NC(=O)CNC(=N)N (stereo not shown) [compound 350]
A10: inhibition of radioligand binding, human opioid (ORL1) (Human opioid (ORL1)): − (“−” indicates less than 50% inhibition at 10 μM)
A3: inhibition of radioligand binding, human melanocortin (MC3) (Human Melanocortin (MC3)): − (“−” indicates less than 50% inhibition at 10 μM)
A4: inhibition of radioligand binding, human melanocortin (MC4) (Human Melanocortin (MC4)): − (“−” indicates less than 50% inhibition at 10 μM)
A5: inhibition of radioligand binding, human melanocortin (MC5) (Human melanocortin (MC5)): + (“+” indicates greater than 50% inhibition at 10 μM)
A11: inhibition of radioligand binding, mouse urotensin (mUR2) (Mouse urotensin (mUR2)): − (“−” indicates less than 50% inhibition at 10 μM)
A1: inhibition of radioligand binding, human δ-opioid (DOP) (Human δ-opioid (DOP)): − (“−” indicates less than 50% inhibition at 10 μM)
A8: inhibition of radioligand binding, human neurokinin (NK1) (Human neurokinin (NK1)): + (“+” indicates greater than 50% inhibition at 10 μM)
A2: inhibition of radioligand binding, human κ-opioid (KOP) (Human κ-Opioid (KOP)): − (“−” indicates less than 50% inhibition at 10 μM)
A9: inhibition of radioligand binding, human neuropeptide Y (NPY-Y1) [1]: − (“−” indicates less than 50% inhibition at 10 μM)
A6: inhibition of radioligand binding, human melanin-concentrating hormone (MCH1) [2]: − (“−” indicates less than 50% inhibition at 10 μM)
A7: inhibition of radioligand binding, human μ-opioid (MOP) (Human μ-opioid (MOP)): − (“−” indicates less than 50% inhibition at 10 μM)

NCCC(=O)N[C@H]1C(OCc2ccc3ccccc3c2)O[C@H](COCc2ccc3ccccc3c2)[C@@H](O)[C@@H]1OCc1ccc(Cl)cc1 (stereo partly shown) [compound 436]
A10: inhibition of radioligand binding (Human opioid (ORL1)): − (“−” indicates less than 50% inhibition at 10 μM)
A3: inhibition of radioligand binding (Human Melanocortin (MC3)): + (“+” indicates greater than 50% inhibition at 10 μM)
A4: inhibition of radioligand binding (Human Melanocortin (MC4)): + (“+” indicates greater than 50% inhibition at 10 μM)
A5: inhibition of radioligand binding (Human melanocortin (MC5)): + (“+” indicates greater than 50% inhibition at 10 μM)
A11: inhibition of radioligand binding (Mouse urotensin (mUR2)): − (“−” indicates less than 50% inhibition at 10 μM)
A1: inhibition of radioligand binding (Human δ-opioid (DOP)): − (“−” indicates less than 50% inhibition at 10 μM)
A8: inhibition of radioligand binding (Human neurokinin (NK1)): + (“+” indicates greater than 50% inhibition at 10 μM)
A2: inhibition of radioligand binding (Human κ-Opioid (KOP)): − (“−” indicates less than 50% inhibition at 10 μM)
A9: inhibition of radioligand binding [1]: − (“−” indicates less than 50% inhibition at 10 μM)
A6: inhibition of radioligand binding [2]: + (“+” indicates greater than 50% inhibition at 10 μM)
A7: inhibition of radioligand binding (Human μ-opioid (MOP)): − (“−” indicates less than 50% inhibition at 10 μM)

— patent US20080009418A1, “Selective Inhibitors” (Alchemia LTD., priority 2004, published 2008)
